Laboratory results as given in patent publication US20240287062A1, “NAPHTHYRIDONE COMPOUNDS FOR INHIBITION OF RAF KINASES AND/OR BCR-ABL TYROSINE KINASES” (Enliven Inc., priority 2021, published 2024).

Legend:
Format in all cases: biochemical
ABL1 = ABL1 (Homo sapiens (Human), UniProt P00519); test: Luminescence-based ABL kinase assay (Km ATP), ADP-Glo; details: measured using the Abl1 Km assay, read-out: IC50 (nM), value inside parentheses
Protocol: (§1) Kinase activity of ABL1 was measured using the ADP-Glo system (Promega), which measures formation of ADP using a luminescence-based method. Compounds were serially diluted in DMSO. 20 nL of compound or DMSO only (high control, HC) were added to a 384-well plate (OptiPlate-384, PerkinElmer) using an Echo550 liquid handler (Labcyte). 15 μL of kinase solution (10 mM MgCl2, 0.01% Brij-35, 2 mM DTT, 0.05% BSA, 1 mM EGTA, 50 mM HEPES pH 7.5, and 3.325 nM ABL1 [Carna Biosciences]) were added to each well of the 384-well plate containing the compounds. No enzyme control wells were included (low control, LC). The plate was incubated at room temperature for 30 minutes. 5 μL of a second solution containing 10 mM MgCl2, 0.01% Brij-35, 2 mM DTT, 0.05% BSA, 1 mM EGTA, 50 mM HEPES pH 7.5, 6 μM Peptide 2 (Perkin Elmer, Cat No 760346), and 40 μM ATP were added to each well to start the kinase reaction. The plate was incubated for 90 minutes at room temperature. 20 μL of ADP-Glo reagent (Promega) were then added to each well and the plate was incubated for 40 minutes at room temperature. 40 μL of kinase detection reagent (Promega) was added to each well and the plate was incubated for an additional 45 minutes at room temperature. During this step, ADP was converted to ATP, a substrate for luciferase, to produce luminescence signal. Luminescence was measured on an Envision plate reader (Perkin Elmer). Luminescence signal positively correlates with kinase activity. The percent kinase activity was calculated as follows: percent kinase activity=100×(LumSample−LumLC)/(LumHC−LumLC). As noted above, DMSO only and no enzyme wells were used as high and low controls, respectively. IC50 values were calculated using the XLFit software.

ABL1 (T315I) = ABL1 (T315I) (Homo sapiens (Human), UniProt P00519, T315I); test: as above; details: measured using the Abl1 Km assay, read-out: IC50 (nM), value inside parentheses
Protocol: as §1

PDGFRα = PDGFRα (Homo sapiens (Human), UniProt P16234); test: Luminescence-based PDGFRα kinase assay (Km ATP), ADP-Glo; details: compound at 100 nM concentration
Sequence of PDGFRα (P16234 24-1089): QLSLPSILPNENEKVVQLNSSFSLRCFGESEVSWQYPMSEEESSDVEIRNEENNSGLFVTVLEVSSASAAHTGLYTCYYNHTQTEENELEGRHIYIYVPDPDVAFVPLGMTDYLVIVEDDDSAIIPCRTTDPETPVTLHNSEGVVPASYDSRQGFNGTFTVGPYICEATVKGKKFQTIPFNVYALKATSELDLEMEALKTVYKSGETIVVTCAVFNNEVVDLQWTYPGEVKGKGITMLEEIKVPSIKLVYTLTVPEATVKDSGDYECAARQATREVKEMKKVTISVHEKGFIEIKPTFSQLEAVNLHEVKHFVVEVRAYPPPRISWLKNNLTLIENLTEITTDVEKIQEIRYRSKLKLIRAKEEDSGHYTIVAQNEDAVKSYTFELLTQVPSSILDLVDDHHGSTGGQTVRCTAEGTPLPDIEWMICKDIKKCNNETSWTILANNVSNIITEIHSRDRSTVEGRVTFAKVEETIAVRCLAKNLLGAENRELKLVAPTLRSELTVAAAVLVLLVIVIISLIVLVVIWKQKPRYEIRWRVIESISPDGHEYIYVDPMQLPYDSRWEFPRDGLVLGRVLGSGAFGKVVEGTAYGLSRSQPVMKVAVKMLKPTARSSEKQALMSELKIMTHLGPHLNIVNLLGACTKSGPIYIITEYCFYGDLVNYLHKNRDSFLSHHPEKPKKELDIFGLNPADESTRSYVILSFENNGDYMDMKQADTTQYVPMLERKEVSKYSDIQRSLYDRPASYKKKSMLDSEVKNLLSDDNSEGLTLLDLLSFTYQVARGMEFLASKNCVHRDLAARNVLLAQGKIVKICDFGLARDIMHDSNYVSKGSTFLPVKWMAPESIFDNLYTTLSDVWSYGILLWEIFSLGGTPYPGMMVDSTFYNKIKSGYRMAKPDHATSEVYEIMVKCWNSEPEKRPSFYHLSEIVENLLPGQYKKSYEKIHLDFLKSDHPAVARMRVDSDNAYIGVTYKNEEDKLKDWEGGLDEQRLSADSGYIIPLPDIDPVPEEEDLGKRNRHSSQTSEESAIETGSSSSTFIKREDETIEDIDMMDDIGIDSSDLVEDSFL
Protocol: Kinase activity of PDGFRα was measured using the ADP-Glo system (Promega). Compounds were diluted in DMSO at 100 μM. 20 nL of compound or DMSO only (high control, HC) were added to a 384-well plate (OptiPlate-384, PerkinElmer) using an Echo550 liquid handler (Labcyte). 15 μL of kinase solution (10 mM MgCl2, 0.01% Brij-35, 2 mM DTT, 0.05% BSA, 1 mM EGTA, 50 mM HEPES pH 7.5, and 13.3 nM PDGFRα [Carna Biosciences]) were added to each well of the 384-well plate containing the compounds. No enzyme control wells were included (low control, LC). The plate was incubated at room temperature for 30 minutes. 5 μL of a second solution containing 10 mM MgCl2, 0.01% Brij-35, 2 mM DTT, 0.05% BSA, 1 mM EGTA, 50 mM HEPES pH 7.5, 0.8 μg/ml Poly(Glu-Tyr) (Sigma, Cat No 97105-00-5), and 120 μM ATP were added to each well to start the kinase reaction. The plate was incubated for 90 minutes at room temperature. 20 μL of ADP-Glo reagent (Promega) were then added to each well and the plate was incubated for 40 minutes at room temperature. […] During this step, ADP was converted to ATP, a substrate for luciferase, to produce luminescence signal. Luminescence was measured on an Envision plate reader (Perkin Elmer). Luminescence signal positively correlates with kinase activity. The percent inhibition of kinase activity was calculated as follows: percent inhibition=100×(LumHC−LumSample)/(LumHC−LumLC). […]

KDR (VEGFR2) = KDR (VEGFR2) (Homo sapiens (Human), UniProt P35968); test: Luminescence-based KDR kinase assay (Km ATP), ADP-Glo; details: compound at 100 nM concentration
Sequence of KDR (VEGFR2) (P35968 20-1356): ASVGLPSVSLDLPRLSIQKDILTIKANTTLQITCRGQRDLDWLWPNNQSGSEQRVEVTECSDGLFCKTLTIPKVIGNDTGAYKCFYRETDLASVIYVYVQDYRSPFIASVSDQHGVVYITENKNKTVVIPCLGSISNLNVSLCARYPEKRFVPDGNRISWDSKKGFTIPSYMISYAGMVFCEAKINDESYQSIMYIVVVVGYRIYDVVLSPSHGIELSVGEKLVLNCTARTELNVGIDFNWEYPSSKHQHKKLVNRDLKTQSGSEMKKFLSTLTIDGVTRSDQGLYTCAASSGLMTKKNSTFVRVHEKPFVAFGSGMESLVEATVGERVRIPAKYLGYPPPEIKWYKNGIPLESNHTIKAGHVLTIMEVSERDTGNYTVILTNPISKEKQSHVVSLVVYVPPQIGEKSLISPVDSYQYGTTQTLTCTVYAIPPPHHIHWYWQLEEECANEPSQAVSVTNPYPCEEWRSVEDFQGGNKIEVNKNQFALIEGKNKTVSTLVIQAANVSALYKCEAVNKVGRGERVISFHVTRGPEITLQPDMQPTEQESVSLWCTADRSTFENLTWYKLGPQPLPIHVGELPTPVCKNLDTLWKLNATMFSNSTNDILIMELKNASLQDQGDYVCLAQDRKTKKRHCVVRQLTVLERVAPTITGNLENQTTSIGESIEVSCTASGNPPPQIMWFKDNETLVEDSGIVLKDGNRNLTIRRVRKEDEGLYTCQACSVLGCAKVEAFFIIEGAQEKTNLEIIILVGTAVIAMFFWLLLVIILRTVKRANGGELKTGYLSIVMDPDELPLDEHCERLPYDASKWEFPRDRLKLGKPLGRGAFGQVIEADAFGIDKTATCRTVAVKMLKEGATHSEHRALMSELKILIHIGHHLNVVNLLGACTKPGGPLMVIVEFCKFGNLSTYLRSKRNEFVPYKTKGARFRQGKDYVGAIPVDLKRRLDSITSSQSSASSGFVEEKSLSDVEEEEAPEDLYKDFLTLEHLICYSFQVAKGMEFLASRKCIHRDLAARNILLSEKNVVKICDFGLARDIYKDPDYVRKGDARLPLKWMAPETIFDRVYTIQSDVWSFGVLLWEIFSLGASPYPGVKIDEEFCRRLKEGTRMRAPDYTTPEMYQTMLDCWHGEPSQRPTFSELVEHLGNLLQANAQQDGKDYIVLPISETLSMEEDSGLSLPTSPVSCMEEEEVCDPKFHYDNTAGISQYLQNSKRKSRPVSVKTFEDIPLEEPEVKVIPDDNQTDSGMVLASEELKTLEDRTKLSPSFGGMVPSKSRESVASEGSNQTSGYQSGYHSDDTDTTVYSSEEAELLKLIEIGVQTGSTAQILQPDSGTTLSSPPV
Protocol: Kinase activity of KDR was measured using the ADP-Glo system (Promega). Compounds were diluted in DMSO at 100 μM. 20 nL of compound or DMSO only (high control, HC) were added to a 384-well plate (OptiPlate-384, PerkinElmer) using an Echo550 liquid handler (Labcyte). 15 μL of kinase solution (10 mM MgCl2, 0.01% Brij-35, 2 mM DTT, 0.05% BSA, 1 mM EGTA, 0.05% CHAPSO, 50 mM HEPES pH 7.5, and 0.665 nM KDR [Carna Biosciences]) were added to each well of the 384-well plate containing the compounds. No enzyme control wells were included (low control, LC). The plate was incubated at room temperature for 30 minutes. 5 μL of a second solution containing 10 mM MgCl2, 0.01% Brij-35, 2 mM DTT, 0.05% BSA, 1 mM EGTA, 50 mM HEPES pH 7.5, 6 μM Peptide 22 (Perkin Elmer, Cat No 760366), and 400 μM ATP were added to each well to start the kinase reaction. The plate was incubated for 90 minutes at room temperature. 20 μL of ADP-Glo reagent (Promega) were then added to each well and the plate was incubated for 40 minutes at room temperature. […] During this step, ADP was converted to ATP, a substrate for luciferase, to produce luminescence signal. Luminescence was measured on an Envision plate reader (Perkin Elmer). Luminescence signal positively correlates with kinase activity. The percent inhibition of kinase activity was calculated as follows: percent inhibition=100×(LumHC−LumSample)/(LumHC−LumLC). […]

| SMILES | IC50 (ABL1) [nM] | IC50 (ABL1 (T315I)) [nM] | inhibition at 0.1 µM (PDGFRα) [%] | inhibition at 0.1 µM (KDR (VEGFR2)) [%] |
| --- | --- | --- | --- | --- |
| Cc1c(F)cncc1-c1cc2cnc(NC(=O)[C@@H]3C[C@@H]3F)cc2n(C)c1=O [Compound 28, (1S,2S)-2-fluoro-N-[3-(5-fluoro-4-methylpyridin-3-yl)-1-methyl-2-oxo-1,6-naphthyridin-7-yl]cyclopropane-1-carboxamide] | 2.2 | 1500 | 15 | 27 |
| Cc1c(F)cncc1-c1cc2cnc(NC(=O)C3CC3)cc2n(C)c1=O [Compound 2, N-[3-(5-fluoro-4-methylpyridin-3-yl)-1-methyl-2-oxo-1,6-naphthyridin-7-yl]cyclopropanecarboxamide] | 1.8 | 680 | 33 | 32 |
